Tests used:
Assay in all cases: relative viability (nuclei count vs DMSO), 5 days (fraction); higher = more cells survive
[1] = compound: CCN1C(=O)C2=CC(=C(N=C2N(C1=O)C3CC3)N)C(=O)N
In short: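 Vehicle-anchored 1536-well plates of lung cancer cell lines, held overnight at 37 °C, were pinned with five library-drug doses (not always all listed) spaced by √10. No medium change followed over the next 5 days, after which the cells were fixed, permeabilised and Hoechst-stained together and imaged at 4×. Nuclei were counted with MetaXpress, and viability is treated-well nuclei over vehicle-well nuclei, taken as a median across plates. Plates passed with control CV below 25% and at least one doubling.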

[2] = compound: CCN1C(=O)C2=CC(=C(N=C2N(C1=O)C3CC3)N)C(=O)N + C[C@]1(O)C[C@@H](c2nc(-c3ccc4ccc(-c5ccccc5)nc4c3)c3c(N)nccn32)C1 [Linsitinib] (partner 1 µM)
In short: (§1)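 Five library-drug doses in √10 steps were combined with a fixed anchor-drug dose, or a single drug was given alone, by pin tool to lung cancer cell lines in 1536-well plates the day after seeding. Nuclei were stained and counted after 5 days. Relative viability is the nuclei count in treated wells over that in vehicle wells, taken as the median of duplicate plates.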

[3] = compound: CCN1C(=O)C2=CC(=C(N=C2N(C1=O)C3CC3)N)C(=O)N + COc1cc2c(Oc3ccc(NC(=O)C4(C(=O)Nc5ccc(F)cc5)CC4)cc3F)ccnc2cc1OCCCN1CCOCC1 [Foretinib] (partner 0.25 µM)
In short: as §1

[4] = compound: CCN1C(=O)C2=CC(=C(N=C2N(C1=O)C3CC3)N)C(=O)N + C[C@@H](Oc1cc(-c2cnn(C3CCNCC3)c2)cnc1N)c1c(Cl)ccc(F)c1Cl [Crizotinib] (partner 1 µM)
In short: as §1

[5] = compound: CCN1C(=O)C2=CC(=C(N=C2N(C1=O)C3CC3)N)C(=O)N + N=C(N)NC(=N)NCCc1ccccc1 [Phenformin] (partner 250 µM)
In short: as §1

Cell Line | relative viability ([1]; 0.253 µM) | relative viability ([1]; 0.8 µM) | relative viability ([1]; 2.53 µM) | relative viability ([1]; 8 µM) | relative viability ([2]; first compound 0.253 µM) | relative viability ([2]; first compound 0.8 µM) | relative viability ([2]; first compound 2.53 µM) | relative viability ([2]; first compound 8 µM) | relative viability ([3]; first compound 0.253 µM) | relative viability ([3]; first compound 0.8 µM) | relative viability ([3]; first compound 2.53 µM) | relative viability ([3]; first compound 8 µM) | relative viability ([4]; first compound 0.253 µM) | relative viability ([4]; first compound 0.8 µM) | relative viability ([4]; first compound 2.53 µM) | relative viability ([4]; first compound 8 µM) | relative viability ([5]; first compound 0.253 µM) | relative viability ([5]; first compound 0.8 µM) | relative viability ([5]; first compound 2.53 µM) | relative viability ([5]; first compound 8 µM)
NCI-H1355 | 1 | 0.998 | 0.992 | 0.973 | 0.846 | 0.891 | 0.808 | 0.687 | 0.996 | 1.01 | 0.963 | 0.937 | 1.12 | 1.05 | 1.02 | 1.1 | 0.463 | 0.473 | 0.451 | 0.436
COR-L 105 | 0.979 | 0.841 | 0.875 | 0.963 | 1.12 | 1.04 | 0.945 | 0.939 | 0.748 | 1.01 | 0.864 | 1.01 | 0.915 | 0.726 | 0.732 | 0.995 | 0.452 | 0.391 | 0.498 | 0.379
NCI-H2228 | 0.99 | 1.01 | 0.902 | 0.965 | 0.984 | 0.943 | 0.606 | 0.969 | 0.95 | 0.982 | 0.82 | 0.839 | 0.452 | 0.535 | 0.433 | 0.507 | 0.405 | 0.372 | 0.331 | 0.395
PC-14 | 0.983 | 0.951 | 1.07 | 1.06 | 0.96 | 0.973 | 0.948 | 0.929 | 0.914 | 0.961 | 0.954 | 0.969 | 0.973 | 0.939 | 0.845 | 0.941 | 0.507 | 0.487 | 0.75 | 0.603
EMC-BAC-2 | 1.39 |  | 1.14 | 1.07 | 0.848 | 0.837 | 0.754 | 0.888 | 1.17 | 1 | 0.935 | 1.17 | 0.841 | 0.734 | 0.713 | 0.855 | 0.597 | 0.478 | 0.478 | 0.56
LU99A | 0.856 | 0.997 | 0.904 | 0.984 | 0.594 | 0.578 | 0.51 | 0.626 | 0.732 | 0.8 | 0.789 | 0.857 | 0.587 | 0.57 | 0.476 | 0.591 | 0.778 | 0.915 | 0.77 | 0.72
RERF-LC-KJ | 1.02 | 0.929 | 0.909 | 0.959 | 0.846 | 0.864 | 0.843 | 0.817 | 0.868 | 0.875 | 0.898 | 0.884 | 0.783 | 0.842 | 0.796 | 0.858 | 0.424 | 0.411 | 0.392 | 0.413

— the supplement of paper PMC10307832
